Here are results for 21 compounds from patent US11337976B2 (Plexxikon Inc., priority 2011, dated 2022).

Each structure is given as a SMILES string. Where two headings read alike, the source gives them in different places. A value given as a limit tells only on which side of the number the result lay.

Common to all, as to type: cell-based, human
For assay [1], the system named is A375 melanoma cells (B-Raf V600E mutation). Kind of assay: A375 (A375_P-ERK) cell activity / cell growth inhibition assay. Particulars: A375 cells (text: A375_P-ERK).
Assay [2] relates to COLO205 colon adenocarcinoma cells (B-Raf V600E mutation). Kind of assay: COLO205 cell growth inhibition assay (ATPlite). On the procedure:
Compounds are assessed in a variety of cell based assays. For example human cell lines with B-RafV600E mutation (A375 melanoma, SKMEL3 melanoma, and COLO205 colon adenocarcinoma), as well as tumorigenic cell lines with wild-type B-RAF (SW620 colon adenocarcinoma) or with Ras mutations (SKMEL2 melanoma and IPC298 melanoma).
On day 1, cells are counted, then centrifuged in a conical tube for 5 minutes at 1000 rpm.
On day 2, compound at a maximum concentration of 5 mM is serially diluted 1:3 (e.g. 10 μL with 30 μL dimethyl sulfoxide) for a total of 8 point titration with DMSO as a control. A 1 μL aliquot of each dilution point and control is added to 249 μL growth media and 50 μL is added to a well containing cells, providing 10 μM compound at the maximum concentration point. The cells are incubated for 3 days at 37° C. in 5% CO2.
ATPlite is added 25 μL to each well, shake for 2 minutes, and the cells are incubated at room temperature for 10 minutes, then luminescence is read on Safire reader. The measured luminescence correlates directly with cell number, such that the reading as a function of compound concentration is used to determine the IC50 value.
(In general: Cellular ATP, detected with luciferase, serves as a proxy for viable cell number.)

Assay [3] concerns IPC-298 cells, phosphorylated ERK. Kind of assay: IPC-298_P-ERK cell activation assay (phosphorylated ERK, AlphaScreen). Conditions: P-ERK activation, one hour treatment. On the procedure: B9 is a squamous cell carcinoma cell line expressing activated HRAS that was isolated from a DMBA/TPA-induced mouse model of skin carcinogenesis (Stoler, et al. The Journal of Cell Biology, 1993, 122(5), 1103-17). IPC-298 is a human melanoma cell line that expresses activated NRAS (Aubert, et al. International Journal of Cancer, 1993, 54(5), 784-92). To determine whether compounds induce phosphorylated ERK and MEK, cells are plated in a 96-well dish and treated with an 8-point titration of compound for one hour at 37° C. The media is then removed and the cells are incubated with lysis buffer containing protease and phosphatase inhibitors. Phosphorylated ERK and MEK in the resulting lysates is detected using AlphaScreen™ technology. To detect phosphorylated ERK, cell lysates are incubated with streptavidin-coated donor beads, anti-mouse IgG acceptor beads, a biotinylated anti-ERK1/2 rabbit antibody, and a mouse antibody that recognizes ERK1/2 only when it is phosphorylated on Thr202 and Tyr204. […] When ERK is phosphorylated, both antibodies can bind the same protein, bringing the donor and acceptor beads into close proximity, producing a signal that can be measured at 580 nm. MEK phosphorylation is detected using a similar approach, only with antibodies directed against total MEK1/2 and MEK1/2 that is phosphorylated at Ser217 and Ser221.
For orientation: Bead proximity is the source of the signal in Alpha formats.

[4] abbreviates: Homo sapiens, A-375, compounds known in the art.
Where [5] appears, read: Homo sapiens, COLO 205, compounds known in the art.

Turning to `COc1ncc(-c2cnc3[nH]cc(C(=O)c4c(F)ccc(NS(=O)(=O)c5cc(F)ccc5F)c4F)c3c2)cn1`, the concentration for half-maximal inhibition (IC50) (in general, the concentration that gives 50% inhibition) was < 0.5 µM in assay [1] (setting [4]) and < 1 µM in assay [2] (setting [5]). On the same counts, the results for `COc1ncc(-c2cnc3[nH]cc(C(=O)c4c(F)ccc(NS(=O)(=O)c5ccccc5F)c4F)c3c2)cn1` are < 0.5 µM and < 1 µM. For `CCCS(=O)(=O)Nc1ccc(F)c(C(=O)c2c[nH]c3ncc(Cl)cc23)c1F`, in that order: < 0.8 µM and < 1 µM. For `O=C(c1c(F)ccc(NS(=O)(=O)N2CCCC2)c1F)c1c[nH]c2ncc(I)cc12` [P-0024], in assay [3], the EC50 (in general, the midpoint of the concentration-response curve) was > 10 µM. Further, the IC50 in assay [1] was < 1 µM; in assay [2], > 1 µM. Regarding `CN(C)S(=O)(=O)Nc1cccc(C(=O)c2c[nH]c3ncc(-c4ccc(C#N)cc4)cc23)c1F` [P-0027], the IC50 in assay [1] (Homo sapiens, A-375) is < 1 µM; in assay [2] (Homo sapiens, COLO 205) it was < 1 µM. `CCN(C)S(=O)(=O)Nc1ccc(F)c(C(=O)c2c[nH]c3ncc(-c4cncs4)cc23)c1F` [P-0315, 5-[3-[3-[[ethyl(methyl)sulfamoyl]amino]-2,6-difluoro-benzoyl]-1H-pyrrolo[2,3-b]pyridin-5-yl]thiazole]: the 50% inhibitory concentration (IC50) in assay [1] (Homo sapiens, A-375) was < 1 µM. `CCN(C)S(=O)(=O)Nc1ccc(F)c(C(=O)c2c[nH]c3ncc(-c4csc(C(C)(C)O)n4)cc23)c1F` [P-0316, 4-[3-[3-[[ethyl(methyl)sulfamoyl]amino]-2,6-difluoro-benzoyl]-1H-pyrrolo[2,3-b]pyridin-5-yl]-2-(1-hydroxy-1-methyl-ethyl)thiazole]: the concentration for half-maximal inhibition (IC50) in assay [1] (Homo sapiens, A-375) is < 1 µM. On the same count and under the same terms, in the case of `CCN(C)S(=O)(=O)Nc1ccc(F)c(C(=O)c2c[nH]c3ncc(-c4ccc(OC)nn4)cc23)c1F` [P-0317, 3-[3-[[ethyl(methyl)sulfamoyl]amino]-2,6-difluoro-benzoyl]-5-(6-methoxypyridazin-3-yl)-1H-pyrrolo[2,3-b]pyridine] it was < 1 µM; in that of `O=C(c1c(F)ccc(NS(=O)(=O)N2CCCC2)c1F)c1c[nH]c2ncc(-c3cc(N4CCOCC4)ncn3)cc12` [P-0318, N-[2,4-difluoro-3-[5-(6-morpholinopyrimidin-4-yl)-1H-pyrrolo[2,3-b]pyridine-3-carbonyl]phenyl]pyrrolidine-1-sulfonamide], < 1 µM. The same measure, in the same setting: the result for `O=C(c1cccc(NS(=O)(=O)N2CCCC2)c1F)c1c[nH]c2ncc(-c3cc(N4CCOCC4)ncn3)cc12` [P-0321, N-[2-fluoro-3-[5-(6-morpholinopyrimidin-4-yl)-1H-pyrrolo[2,3-b]pyridine-3-carbonyl]phenyl]pyrrolidine-1-sulfonamide] reads < 1 µM. On the same count and under the same terms, in the case of `CN1CCN(c2cc(-c3cnc4[nH]cc(C(=O)c5cccc(NS(=O)(=O)N6CCCC6)c5F)c4c3)ncn2)CC1` [P-0322, N-[2-fluoro-3-[5-[6-(4-methylpiperazin-1-yl)pyrimidin-4-yl]-1H-pyrrolo[2,3-b]pyridine-3-carbonyl]phenyl]pyrrolidine-1-sulfonamide] it was < 1 µM; in that of `CN1CCN(c2cccc(-c3cnc4[nH]cc(C(=O)c5cccc(NS(=O)(=O)N6CCCC6)c5F)c4c3)n2)CC1` [P-0324, N-[2-fluoro-3-[5-[6-(4-methylpiperazin-1-yl)-2-pyridyl]-1H-pyrrolo[2,3-b]pyridine-3-carbonyl]phenyl]pyrrolidine-1-sulfonamide], < 1 µM; in that of `COc1ccnc(-c2cnc3[nH]cc(C(=O)c4cccc(NS(=O)(=O)N5CCCC5)c4F)c3c2)n1` [P-0325, N-[2-fluoro-3-[5-(4-methoxypyrimidin-2-yl)-1H-pyrrolo[2,3-b]pyridine-3-carbonyl]phenyl]pyrrolidine-1-sulfonamide], < 1 µM. On to `Cc1ccnc(-c2cnc3[nH]cc(C(=O)c4cccc(NS(=O)(=O)N5CCCC5)c4F)c3c2)n1` [P-0326, N-[2-fluoro-3-[5-(4-methylpyrimidin-2-yl)-1H-pyrrolo[2,3-b]pyridine-3-carbonyl]phenyl]pyrrolidine-1-sulfonamide], for which the IC50 in assay [1] (Homo sapiens, A-375) is > 1 µM.

As to `O=C(c1cccc(NS(=O)(=O)N2CC[C@@H](F)C2)c1F)c1c[nH]c2ncc(-c3cnc(C4CC4)nc3)cc12` [P-0327, (3R)—N-[3-[5-(2-cyclopropylpyrimidin-5-yl)-1H-pyrrolo[2,3-b]pyridine-3-carbonyl]-2-fluoro-phenyl]-3-fluoro-pyrrolidine-1-sulfonamide], in assay [1] (Homo sapiens, A-375), the half-maximal inhibitory concentration (IC50) is < 1 µM. Same read-out and setting: the result for `CNS(=O)(=O)Nc1ccc(F)c(C(=O)c2c[nH]c3ncc(-c4cnc(C5CC5)nc4)cc23)c1F` [P-0334, [5-(2-cyclopropylpyrimidin-5-yl)-1H-pyrrolo[2,3-b]pyridin-3-yl]-[2,6-difluoro-3-(methylsulfamoylamino)phenyl]methanone] reads > 1 µM; that for `CCNS(=O)(=O)Nc1ccc(F)c(C(=O)c2c[nH]c3ncc(-c4cnc(C5CC5)nc4)cc23)c1F` [P-0335, [5-(2-cyclopropylpyrimidin-5-yl)-1H-pyrrolo[2,3-b]pyridin-3-yl]-[3-(ethylsulfamoylamino)-2,6-difluoro-phenyl]methanone], < 1 µM. As to `CCC(C)S(=O)(=O)Nc1ccc(F)c(C(=O)c2c[nH]c3ncc(-c4ccc(Cl)cc4)cc23)c1F` (stereo not drawn) [P-0337, N-[3-[5-(4-chlorophenyl)-1H-pyrrolo[2,3-b]pyridine-3-carbonyl]-2,4-difluoro-phenyl]butane-2-sulfonamide], the concentration for half-maximal inhibition (IC50) in assay [1] (Homo sapiens, A-375) is > 1 µM.

`O=C(c1c(F)ccc(NS(=O)(=O)N2CC[C@@H](F)C2)c1F)c1c[nH]c2ncc(-c3cnc(C4CC4)nc3)cc12` [P-0338, (3R)—N-[3-[5-(2-cyclopropylpyrimidin-5-yl)-1H-pyrrolo[2,3-b]pyridine-3-carbonyl]-2,4-difluoro-phenyl]-3-fluoro-pyrrolidine-1-sulfonamide]: the half-maximal inhibitory concentration (IC50) in assay [1] (Homo sapiens, A-375) was < 1 µM. Same read-out and setting: the result for `O=C(c1c(F)ccc(NS(=O)(=O)N2CCC(F)C2)c1F)c1c[nH]c2ncc(-c3cnc(C4CC4)nc3)cc12` (stereo not drawn) [P-0339, N-[3-[5-(2-cyclopropylpyrimidin-5-yl)-1H-pyrrolo[2,3-b]pyridine-3-carbonyl]-2,4-difluoro-phenyl]-3-fluoro-pyrrolidine-1-sulfonamide] reads < 1 µM.

Take `CN(CC(F)(F)F)S(=O)(=O)Nc1ccc(F)c(C(=O)c2c[nH]c3ncc(-c4cnc(C5CC5)nc4)cc23)c1F` [P-0340, 5-(2-cyclopropylpyrimidin-5-yl)-3-[2,6-difluoro-3-[[methyl(2,2,2-trifluoroethyl)sulfamoyl]amino]benzoyl]-1H-pyrrolo[2,3-b]pyridine]: the IC50 in assay [1] (Homo sapiens, A-375) is < 1 µM.
